EP0719251B1, “BICYCLO (2.2.2) OCTANE DERIVATIVES CHOLECYSTOKININ AND/OR GASTRIN ANTAGONISTS” (JAMES BLACK FOUNDATION LIMITED, priority 1993, dated 1995)

What was measured:
[1] = target: T1, CCKA (Cavia porcellus, UniProt Q63931); test: CCKA binding assay in guinea-pig pancreas membranes; details: [125I]-CCK8(S) 200pM; for Ki: containing 0.375 µM PD134,308, read-out: CCKA pKi (converted); for CCKA pKi: containing 0.375 µM PD134,308
T1 construct: The pancreatata were removed from male guinea-pigs (200-300g; Dunkin Hartley); from tissue; host or cells: pancreas membranes of male Dunkin Hartley guinea-pigs
T1 sequence (Q63931 1-430): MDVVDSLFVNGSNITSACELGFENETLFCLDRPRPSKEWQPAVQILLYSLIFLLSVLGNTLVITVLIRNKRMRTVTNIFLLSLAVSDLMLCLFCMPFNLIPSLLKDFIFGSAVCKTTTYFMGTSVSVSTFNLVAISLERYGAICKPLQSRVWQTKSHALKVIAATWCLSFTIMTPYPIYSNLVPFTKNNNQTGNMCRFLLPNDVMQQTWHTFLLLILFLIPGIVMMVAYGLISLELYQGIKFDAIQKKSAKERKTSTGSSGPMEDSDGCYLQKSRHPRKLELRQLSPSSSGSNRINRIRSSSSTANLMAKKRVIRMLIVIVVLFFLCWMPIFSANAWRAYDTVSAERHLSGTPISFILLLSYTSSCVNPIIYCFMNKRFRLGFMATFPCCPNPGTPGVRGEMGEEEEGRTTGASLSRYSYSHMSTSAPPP
How it was run: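 Competition binding of [125I]-CCK8(S) (200 pM in the added solution) to male guinea-pig pancreas membranes (1 mg/ml wet weight) containing 0.375 µM PD134,308, in HEPES buffer pH 7.2. Incubated 150 min at 21 ± 3°, then filtered. Bound radioactivity gamma-counted; non-specific binding defined with 100nM L-364,718.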

[2] = target: T2, CCKB receptor (Mus musculus, UniProt P56481); test: radioligand binding assay at the CCKB receptor in mouse cortical membranes; details: [125I]-CCK8S 200pM, 150 min at 21 ± 3°C, read-out: CCKB pKi (converted)
T2 construct: The whole brains from male mice (CD1 22-25g; Charles River) were removed; from tissue; host or cells: cerebral cortex membranes of male CD1 mice
T2 sequence (P56481 1-453): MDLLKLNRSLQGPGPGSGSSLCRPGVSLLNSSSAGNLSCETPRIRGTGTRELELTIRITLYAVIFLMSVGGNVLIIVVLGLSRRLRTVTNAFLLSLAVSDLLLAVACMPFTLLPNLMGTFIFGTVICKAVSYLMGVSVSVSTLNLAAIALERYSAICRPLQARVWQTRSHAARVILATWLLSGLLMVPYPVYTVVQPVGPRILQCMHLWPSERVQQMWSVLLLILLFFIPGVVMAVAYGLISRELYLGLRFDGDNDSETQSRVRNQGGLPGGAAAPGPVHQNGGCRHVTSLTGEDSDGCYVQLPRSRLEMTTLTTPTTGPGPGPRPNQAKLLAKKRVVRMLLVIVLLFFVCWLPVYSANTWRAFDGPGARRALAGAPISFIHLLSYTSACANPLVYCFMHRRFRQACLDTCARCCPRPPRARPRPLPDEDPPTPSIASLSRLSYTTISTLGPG
How it was run: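 Radioligand binding was quantified by gamma counting after filtration through GF/B filters and cold 50 mM Tris-HCl (pH 7.4) washes. Tissue source was male CD1 mouse cortex, homogenised and twice centrifuged, then resuspended at 2 mg.ml^-1 original wet weight in pH 7.2 HEPES buffer containing bacitracin.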

[3] = target: T3, gastrin (Rattus norvegicus, UniProt P30553); test: gastrin antagonist activity in an immature rat stomach assay; details: isolated immature rat stomach, cumulative pentagastrin dose-response curves, acid secretion; for Kb: read-out: Gastrin pKB (converted)
T3 construct: The stomach was excised and flushed with ca. 1 ml of unbuffered physiological saline solution; from tissue; host or cells: isolated whole stomach of immature rats (33-50 g, ca. 21 days old)
T3 sequence (P30553 1-452): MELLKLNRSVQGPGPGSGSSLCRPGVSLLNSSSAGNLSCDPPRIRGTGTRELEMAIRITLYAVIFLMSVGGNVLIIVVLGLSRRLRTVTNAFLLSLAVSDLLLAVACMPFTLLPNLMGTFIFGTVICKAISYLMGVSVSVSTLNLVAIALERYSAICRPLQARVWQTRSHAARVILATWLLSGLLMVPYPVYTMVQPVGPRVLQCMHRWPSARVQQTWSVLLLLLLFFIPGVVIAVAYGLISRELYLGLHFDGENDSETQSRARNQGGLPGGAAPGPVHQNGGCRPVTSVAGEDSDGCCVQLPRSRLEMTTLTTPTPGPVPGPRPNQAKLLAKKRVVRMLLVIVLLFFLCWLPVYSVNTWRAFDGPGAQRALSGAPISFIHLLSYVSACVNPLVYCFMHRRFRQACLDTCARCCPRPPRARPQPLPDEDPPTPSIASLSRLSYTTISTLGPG
How it was run: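 Isolated stomachs from immature rats (33-50 g, ca. 21 days) perfused at 1 ml min^-1 with O2-gassed unbuffered saline, perfusate pH monitored by electrode. After 120 min stabilisation, compounds added to serosal bath; cumulative pentagastrin dose-response curves begun 60 min later.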

| Structure (SMILES) | Ki [1] [µM] | Ki [2] [µM] | Kb [3] [µM] | CCKA pKi [1] | Gastrin pKB ([3]; 60 min) |
| --- | --- | --- | --- | --- | --- |
| O=C(O)c1cc(NC(=O)[C@H](Cc2ccccc2)NC(=O)C2C3c4ccccc4C(c4ccccc43)C2C(=O)NCc2ccc(Cl)c(Cl)c2)cc(C(=O)O)c1 (single isomer, unassigned) [Example 35, cis-7-(1S-(3,5-dicarboxyphenylaminocarbonyl)-2-phenylethylaminocarbonyl) -8-(3,4-dichlorophenyl-methylaminocarbonyl) -2,3,5,6-dibenzobicyclo[2.2.2]octane] | 1.26 | 0.158 | 1 | – | – |
| O=C(O)c1cccc(NC(=O)[C@H](Cc2ccccc2)NC(=O)C2C3c4ccccc4C(c4ccccc43)C2C(=O)NCC23CC4CC(CC(C4)C2)C3)c1 (single isomer, unassigned) [Example 40, cis-7-(1S-(3-carboxyphenylaminocarbonyl)-2-phenylethylaminocarbonyl) -8-(1-adamantanemethylaminocarbonyl)-2,3,5,6-dibenzobicyclo[2.2.2]octane] | 1 | 0.0158 | 2 | – | – |
| O=C(O)c1cccc(NC(=O)[C@H](Cc2ccccc2)NC(=O)C2C3c4ccccc4C(c4ccccc43)C2C(=O)NCC23CC4CC(CC(C4)C2)C3)c1 (single isomer, unassigned) [Example 41, cis-7-(1S-(3-carboxyphenylaminocarbonyl)-2-phenylethylaminocarbonyl)-8-(1-adamantanemethylaminocarbonyl)-2,3,5,6-dibenzobicyclo[2.2.2]octane] | – | 0.158 | – | 6.0 | 5.7 |
| O=C(O)c1cc(NC(=O)[C@H](Cc2ccccc2)NC(=O)C2C3c4ccccc4C(c4ccccc43)C2C(=O)NCc2ccc3ccccc3c2)cc(C(=O)O)c1 (single isomer, unassigned) [Example 63, cis-7-(1S-(3,5-dicarboxyphenylaminocarbonyl) -2-phenylethylaminocarbonyl)-8-(2-naphthalenemethylaminocarbonyl) -2,3,5,6-dibenzobicyclo[2.2.2]octane] | 1.58 | 0.00251 | 0.0398 | – | – |
| O=C(O)c1cc(NC(=O)[C@H](Cc2ccccc2)NC(=O)C2C3c4ccccc4C(c4ccccc43)C2C(=O)NCc2ccc3ccccc3c2)cc(C(=O)O)c1 (single isomer, unassigned) [Example 64, cis-7-(1S-(3,5-dicarboxyphenylaminocarbonyl) -2-phenylethylaminocarbcnyl)-8-(2-naphthalenemethylaminocarbonyl)-2,3,5,6-dibenzobicyclo [2.2.2]octane] | – | 0.00501 | 0.316 | 5.8 | – |
| O=C(O)c1cc(NC(=O)[C@H](CC2CCCCC2)NC(=O)C2C3c4ccccc4C(c4ccccc43)C2C(=O)NCC23CC4CC(CC(C4)C2)C3)cc(C(=O)O)c1 (stereo partly drawn) [Example 5, cis-7-(1S-(3,5-dicarboxyphenylaminocarbonyl) -2-cyclohexylethylaminocarbonyl)-8-(1-adamantanemethylaminocarbonyl) -2,3,5,6-dibenzobicyclo[2.2.2]octane] | 1 | 0.0251 | 0.316 | – | – |

Further lines, results first:

| Ki [1] [µM] | Ki [2] [µM] | Kb [3] [µM] | CCKA pKi [1] | Gastrin pKB ([3]; 60 min) | Structure (SMILES) |
| --- | --- | --- | --- | --- | --- |
| 2.51 | 0.0316 | 0.0398 | – | – | O=C(O)c1cc(CNC(=O)[C@H](Cc2ccccc2)NC(=O)C2C3c4ccccc4C(c4ccccc43)C2C(=O)NCC23CC4CC(CC(C4)C2)C3)cc(C(=O)O)c1 (single isomer, unassigned) [Example 61, cis-7-(1S-(3,5-dicarboxyphenylmethylaminocarbonyl) -2-phenylethylaminocarbonyl) -8-(1-adamantanemethylaminocarbonyl)-2,3,5,6-dibenzobicyclo [2.2.2] octane] |
| – | 0.0398 | 0.0631 | 5.6 | – | O=C(O)c1cc(CNC(=O)[C@H](Cc2ccccc2)NC(=O)C2C3c4ccccc4C(c4ccccc43)C2C(=O)NCC23CC4CC(CC(C4)C2)C3)cc(C(=O)O)c1 (single isomer, unassigned) [Example 62, cis-7-(1S-(3,5-dicarboxyphenylmethylaminocarbonyl)-2-phenylethylaminocarbonyl)-8-(1-adamantanemethyl-aminocarbonyl)-2,3,5,6-dibenzobicyclo[2.2 .2]octane] |
| 2 | 0.01 | 0.00631 | – | – | O=C(O)c1cc(NC(=O)[C@H](Cc2ccccc2Cl)NC(=O)C2C3c4ccccc4C(c4ccccc43)C2C(=O)NCC23CC4CC(CC(C4)C2)C3)cc(C(=O)O)c1 (stereo partly drawn) [Example 20, cis-7-(1S-(3,5-dicarboxyphenylaminocarbonyl)-2-(2-chlorophenyl) -ethylaminocarbonyl)-8-(1-adamantanemethylaminocarbonyl) -2,3,5,6-dibenzobicyclo [2.2.2] octane] |
| 2 | 0.0631 | 0.0316 | – | – | O=C(O)c1cc(NC(=O)[C@H](CCc2ccccc2)NC(=O)C2C3c4ccccc4C(c4ccccc43)C2C(=O)NCC23CC4CC(CC(C4)C2)C3)cc(C(=O)O)c1 (stereo partly drawn) [Example 36, cis-7-(1S-(3,5-dicarboxyphenylaminocarbonyl) -3-phenylpropylaminocarbonyl) -8-(1-adamantanemethyl-aminocarbonyl) -2,3,5,6-dibenzobicyclo[2.2.2]octane] |
| 2 | 0.1 | 0.0631 | – | – | O=C(O)c1cc(NC(=O)[C@@H](CCc2ccccc2)NC(=O)C2C3c4ccccc4C(c4ccccc43)C2C(=O)NCC23CC4CC(CC(C4)C2)C3)cc(C(=O)O)c1 (stereo partly drawn) [Example 37, cis-7-(1R-(3,5-dicarboxyphenylaminocarbonyl) -3-phenylpropylaminocarbonyl)-8-(1-adamintanemethylaminocarbonyl)-2,3,5,6-dibenzobicyclo[2.2.2] octane] |
| 0.316 | 0.0501 | 0.0794 | – | – | CN(C(=O)C1C2c3ccccc3C(c3ccccc32)C1C(=O)NCC12CC3CC(CC(C3)C1)C2)[C@@H](Cc1ccccc1)C(=O)Nc1cc(C(=O)O)cc(C(=O)O)c1 (stereo partly drawn) [Example 38, cis-7-(1S-(3,5-dicarboxyphenylaminocarbonyl) -2-phenylethyl-N (methyl)-aminocarbonyl) -8-(1-adamantanemethylaminocarbonyl) -2,3,5,6-dibenzobicyclo[2.2.2]octane] |
| 2.51 | 0.501 | 0.398 | – | – | O=C(O)c1cc(NC(=O)[C@@H](NC(=O)C2C3c4ccccc4C(c4ccccc43)C2C(=O)NCC23CC4CC(CC(C4)C2)C3)c2ccccc2)cc(C(=O)O)c1 (stereo partly drawn) [Example 39, cis-7-(1S-(3,5-dicarboxyphenylaminocarbonyl) -3-phenylmethylaminocarbonyl)-8-(1-adamantanemethylaminocarbonyl) -2,3,5,6-dibenzobicyclo[2.2.2]octane] |
